# From the supplement of paper PMC10307832
# Columns and labels:
# Assay in all cases: relative viability (nuclei count vs DMSO), 5 days (fraction); higher = more cells survive
# Kobe2602 + Lapatinib = compound: C1=CC(=CC=C1NC(=S)NNC2=C(C=C(C=C2[N+](=O)[O-])C(F)(F)F)[N+](=O)[O-])F [Kobe2602] + CS(=O)(=O)CCNCc1ccc(-c2ccc3ncnc(Nc4ccc(OCc5cccc(F)c5)c(Cl)c4)c3c2)o1 [Lapatinib] (partner 2 µM)
# Method in brief: (§1)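 After 5 days of treatment, lung cancer cells in 1536-well plates were fixed and stained in a single step (final 0.05% Triton X-100, 1% formaldehyde, 1 ug/ml Hoechst) and their nuclei counted on 4× images. Treatment had been applied by pin tool the day after seeding as one drug alone or as a fixed anchor-drug dose with five library-drug doses (not always all listed) in √10 steps. Relative viability is the nuclei count of treated wells divided by that of vehicle wells, and values are medians of duplicate plates.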
# Cabozantinib + Dasatinib = compound: COc1cc2nccc(Oc3ccc(NC(=O)C4(C(=O)Nc5ccc(F)cc5)CC4)cc3)c2cc1OC [Cabozantinib] + Cc1nc(Nc2ncc(C(=O)Nc3c(C)cccc3Cl)s2)cc(N2CCN(CCO)CC2)n1 [Dasatinib] (partner 0.075 µM)
# Method in brief: as §1
# Cabozantinib + Lapatinib = compound: COc1cc2nccc(Oc3ccc(NC(=O)C4(C(=O)Nc5ccc(F)cc5)CC4)cc3)c2cc1OC [Cabozantinib] + CS(=O)(=O)CCNCc1ccc(-c2ccc3ncnc(Nc4ccc(OCc5cccc(F)c5)c(Cl)c4)c3c2)o1 [Lapatinib] (partner 2 µM)
# Method in brief: as §1
# [1] = compound: COc1cc2nccc(Oc3ccc(NC(=O)C4(C(=O)Nc5ccc(F)cc5)CC4)cc3)c2cc1OC [Cabozantinib] + CC(=O)Nc1cccc(-n2c(=O)n(C3CC3)c(=O)c3c(Nc4ccc(I)cc4F)n(C)c(=O)c(C)c32)c1 [Trametinib] (partner 0.02 µM)
# Method in brief: as §1
Cell Line,relative viability (Kobe2602 + Lapatinib; first compound 0.2 µM),relative viability (Kobe2602 + Lapatinib; first compound 0.6325 µM),relative viability (Kobe2602 + Lapatinib; first compound 2 µM),relative viability (Kobe2602 + Lapatinib; first compound 6.325 µM),relative viability (Kobe2602 + Lapatinib; first compound 20 µM),relative viability (Cabozantinib + Dasatinib; first compound 0.02 µM),relative viability (Cabozantinib + Dasatinib; first compound 0.06325 µM),relative viability (Cabozantinib + Dasatinib; first compound 0.6325 µM),relative viability (Cabozantinib + Dasatinib; first compound 2 µM),relative viability (Cabozantinib + Lapatinib; first compound 0.02 µM),relative viability (Cabozantinib + Lapatinib; first compound 0.06325 µM),relative viability (Cabozantinib + Lapatinib; first compound 0.2 µM),relative viability (Cabozantinib + Lapatinib; first compound 0.6325 µM),relative viability (Cabozantinib + Lapatinib; first compound 2 µM),relative viability ([1]; first compound 0.02 µM),relative viability ([1]; first compound 0.06325 µM),relative viability ([1]; first compound 0.2 µM),relative viability ([1]; first compound 0.6325 µM),relative viability ([1]; first compound 2 µM),relative viability (Cabozantinib + Dasatinib; first compound 0.2 µM)
LOU-NH91,0.706,0.774,0.718,0.801,0.805,0.432,0.579,0.578,0.547,0.687,0.776,0.781,0.711,0.712,0.778,0.866,0.692,0.785,0.748,
SK-MES-1,0.465,0.488,0.427,0.436,0.464,0.335,0.518,0.432,0.242,0.468,0.497,0.42,0.448,0.396,0.605,0.666,0.615,0.535,0.533,0.293
NCI-H2170,0.282,0.261,0.262,0.272,0.303,0.622,0.57,0.542,0.591,0.263,0.302,0.16,0.353,0.27,0.927,0.921,0.896,0.922,0.95,0.373
NCI-H460,0.962,0.983,1.06,1,0.999,0.321,0.607,0.493,0.565,1.19,1.13,0.958,0.97,0.981,0.133,0.196,0.134,0.159,0.174,0.496
SK-LU-1,0.859,0.88,0.92,0.859,0.817,0.138,0.164,0.155,0.156,,0.539,0.929,0.774,0.634,0.475,0.58,0.623,0.4,0.451,0.174
EPLC-272H,1.05,0.956,0.916,0.853,1.01,0.245,0.403,0.26,0.285,0.899,1.22,0.877,0.97,0.701,0.275,0.318,0.275,0.246,0.245,0.26
A-427,0.995,1.02,1.01,1.03,0.953,0.81,0.705,0.706,0.795,1.1,1.11,0.963,1.02,1.08,0.729,0.801,0.772,0.762,0.743,0.695
